Where two headings read alike, the source gives them in different places.
Experiments:
human JAK3 = biological target: T1, human JAK3 (Homo sapiens, UniProt P52333); assay: JAK3 immune complex kinase assay (JAK3 immunoprecipitated from KL2 EBV-transformed B cell line); type: biochemical
T1 sequence (P52333 1-1124): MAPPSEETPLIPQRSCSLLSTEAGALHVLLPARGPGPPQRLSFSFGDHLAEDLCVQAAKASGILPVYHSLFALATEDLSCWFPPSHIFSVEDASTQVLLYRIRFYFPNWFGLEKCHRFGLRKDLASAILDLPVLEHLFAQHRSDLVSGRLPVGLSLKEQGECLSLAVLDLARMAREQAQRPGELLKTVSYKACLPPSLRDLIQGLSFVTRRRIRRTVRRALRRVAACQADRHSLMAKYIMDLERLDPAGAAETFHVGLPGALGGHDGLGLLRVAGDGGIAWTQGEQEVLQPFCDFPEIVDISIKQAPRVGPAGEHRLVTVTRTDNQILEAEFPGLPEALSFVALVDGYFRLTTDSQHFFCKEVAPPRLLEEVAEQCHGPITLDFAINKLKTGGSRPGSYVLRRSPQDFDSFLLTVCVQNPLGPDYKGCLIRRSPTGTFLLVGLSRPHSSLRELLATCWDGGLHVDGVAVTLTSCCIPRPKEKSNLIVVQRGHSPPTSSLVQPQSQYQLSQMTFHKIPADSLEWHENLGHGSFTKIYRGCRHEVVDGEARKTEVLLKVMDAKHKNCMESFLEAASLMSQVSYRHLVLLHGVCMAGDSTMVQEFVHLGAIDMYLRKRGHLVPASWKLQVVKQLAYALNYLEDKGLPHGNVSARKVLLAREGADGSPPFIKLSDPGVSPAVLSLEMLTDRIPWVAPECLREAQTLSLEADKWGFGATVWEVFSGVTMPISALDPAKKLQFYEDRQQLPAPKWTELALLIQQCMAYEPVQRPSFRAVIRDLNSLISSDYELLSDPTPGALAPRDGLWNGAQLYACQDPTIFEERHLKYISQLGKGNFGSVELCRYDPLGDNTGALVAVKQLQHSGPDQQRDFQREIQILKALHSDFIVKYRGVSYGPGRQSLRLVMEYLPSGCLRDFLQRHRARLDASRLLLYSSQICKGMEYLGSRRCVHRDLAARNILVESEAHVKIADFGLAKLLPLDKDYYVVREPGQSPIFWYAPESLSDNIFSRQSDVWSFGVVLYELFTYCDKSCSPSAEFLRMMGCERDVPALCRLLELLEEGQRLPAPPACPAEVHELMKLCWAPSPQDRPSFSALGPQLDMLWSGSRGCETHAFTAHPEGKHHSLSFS
Description: (§1) In JAK3 immune complex kinase assays (17, 22), KL-2 EBV-transformed human lymphoblastoid B cells (native JAK3 kinase assays) or insect ovary cells (recombinant JAK3 kinase assays) were lysed with NP-40 lysis buffer (50 mM Tris, pH 8, 150 mM NaCl, 5 mM EDTA, 1% NP-40, 100 μM sodium orthovanadate, 100 μM sodium molybdate, 8 μg/ml aprotinin, 5 μg/ml leupeptin, and 500 μM PMSF) and centrifuged 10 min at 13000× g to remove insoluble material. Samples were immunoprecipitated with antisera prepared against JAK3. The antisera were diluted and immune complexes collected by incubation with 15 μl protein A Sepharose. After 4 washes with NP-40 lysis buffer, the protein A Sepharose beads were washed once in kinase buffer (20 mM MOPS, pH7, 10 mM MgCl2) and resuspended in the same buffer. Reactions were initiated by the addition of 25 μCi [γ^32P] ATP (5000 Ci/mMole) and unlabeled ATP to a final concentration of 5 μM. Reactions were terminated by boiling for 4 min in SDS sample buffer. Samples were run on 9.5% SDS polyacrylamide gels and labeled proteins were detected by autoradiography. Following electrophoresis, kinase gels were dried onto Whatman 3M filter paper and subjected to phosphorimaging on a Molecular Imager (Bio-Rad, Hercules, Calif.) as well as autoradiography on film. For each drug concentration, a kinase activity index (KA) was determined by comparing the kinase activity in phosphorimager units (PIU) to that of the baseline sample. In some experiments, cold kinase assays were performed, as described by (Uckun, F. M., et al., Clin. Can. Res. 4: 901-912, 1998).
We first used immune complex kinase assays to compare the effects of the synthesized dimethoxyquinazoline compounds on the enzymatic activity of human JAK3 immunoprecipitated from the KL2 EBV-transformed human lymphoblastoid B cell line.

recombinant murine JAK3 = biological target: T2, recombinant murine JAK3 (Mus musculus, UniProt Q62137); assay: Recombinant JAK3 immune complex kinase assay (baculovirus, Sf21); type: biochemical
T2 sequence (Q62137 1-1100): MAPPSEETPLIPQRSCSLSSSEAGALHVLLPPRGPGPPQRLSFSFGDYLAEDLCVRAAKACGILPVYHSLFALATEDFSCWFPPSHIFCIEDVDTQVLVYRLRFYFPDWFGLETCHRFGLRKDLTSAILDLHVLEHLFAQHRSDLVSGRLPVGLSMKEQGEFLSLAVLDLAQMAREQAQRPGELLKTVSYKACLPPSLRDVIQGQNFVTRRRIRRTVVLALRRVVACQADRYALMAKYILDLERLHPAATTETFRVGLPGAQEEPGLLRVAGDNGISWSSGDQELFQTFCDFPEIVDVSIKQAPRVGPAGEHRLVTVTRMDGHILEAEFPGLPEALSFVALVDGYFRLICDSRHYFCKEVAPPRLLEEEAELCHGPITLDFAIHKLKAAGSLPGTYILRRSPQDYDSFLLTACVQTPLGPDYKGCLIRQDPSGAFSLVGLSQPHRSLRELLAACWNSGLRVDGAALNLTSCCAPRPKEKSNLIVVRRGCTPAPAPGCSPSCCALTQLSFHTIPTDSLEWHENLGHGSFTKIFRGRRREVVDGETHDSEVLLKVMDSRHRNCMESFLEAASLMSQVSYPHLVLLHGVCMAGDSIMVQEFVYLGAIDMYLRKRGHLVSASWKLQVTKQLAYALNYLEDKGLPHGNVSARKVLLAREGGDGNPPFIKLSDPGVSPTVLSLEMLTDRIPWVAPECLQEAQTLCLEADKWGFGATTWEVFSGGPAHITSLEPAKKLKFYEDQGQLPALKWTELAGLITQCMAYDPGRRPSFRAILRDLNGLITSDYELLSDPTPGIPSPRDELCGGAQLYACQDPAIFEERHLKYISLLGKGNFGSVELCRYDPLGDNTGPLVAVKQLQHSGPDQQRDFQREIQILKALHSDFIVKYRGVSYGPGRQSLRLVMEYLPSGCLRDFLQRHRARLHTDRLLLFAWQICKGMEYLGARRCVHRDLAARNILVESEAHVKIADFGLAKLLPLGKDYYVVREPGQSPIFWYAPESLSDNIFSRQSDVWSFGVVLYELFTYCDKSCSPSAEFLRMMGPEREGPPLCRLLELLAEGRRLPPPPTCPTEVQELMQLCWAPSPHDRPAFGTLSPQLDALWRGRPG
Description: Sf21 (IPLB-SF21-AE) cells (Vassilev, A., et al., J. Biol. Chem. 274: 1646-1656, 1999) derived from the ovarian tissue of the fall armyworm Spodotera frugiperda, were obtained from Invitrogen (Carlsbad, Calif.) and maintained at 26-28° C. in Grace's insect cell medium supplemented with 10% FBS and 1.0% antibiotic/antimycotic (GIBCO-BRL). Stock cells were maintained in suspension at 0.2-1.6×10^6/ml in 600 ml total culture volume in 1 L Bellco spinner flasks at 60-90 rpm. Cell viability was maintained at 95-100% as determined by trypan blue dye exclusion. Sf21 cells were infected with a baculovirus expression vector for BTK, SYK, JAK1, JAK2, or JAK3. Cells were harvested, lysed (10 MM Tris pH7.6, 100 mM NaCl, 1% Nonidet P40, 10% glycerol, 50 mM NaF, 100 μM Na3VO4, 50 μg/ml phenylmethylsulfonyl fluoride, 10 μg/ml aprotonin, 10 μg/ml leupeptin), the kinases were immunoprecipitated from the lysates, and their enzymatic activity assayed, as reported (Vassilev, A., et al., J. Biol. Chem. 274: 1646-1656, 1999; Uckun, F. M., et al., Science. 22: 1096-1100, 1996; Goodman, P. A., et al., J. Biol. Chem. 273: 17742-48, 1998; Mahajan, S., et al., Mol. Cell. Biol. 15: 5304-11, 1995; and Uckun, F. M., et al., Science. 267: 886-91, 1995). The immunoprecipitates were subjected to Western blot analysis as previously described (Vassilev, A., et al., J. Biol. Chem. 274: 1646-1656, 1999; and Uckun, F. M., et al., Science. 22: 1096-1100, 1996).
as §1, with “Following electrophoresis, kinase gels were dried onto Whatman 3M filter paper and subjected to phosphorimaging on a Molecular Imager (Bio-Rad, Hercules, Calif.) as well as autoradiography on film.” left out, “In some experiments, cold kinase assays were performed, as described by (Uckun, F. M., et al., Clin. Can. Res. 4: 901-912, 1998).” left out

[1] = JAK3 kinase assay, KL2 cell-derived human JAK3, read-out: IC50

Q: Which melting point does the source give for `COc1cc2ncnc(Nc3ccc(O)c(Cl)c3)c2cc1OC` [WHI-P197] here?
A: The melting point was 245 °C (dec.).

Q: For `COc1cc2ncnc(Nc3ccccc3)c2cc1OC` [WHI-P258, 4-(phenyl)-amino-6,7-dimethoxyquinazoline], which IC50 (human JAK3; [1]) is on record?
A: Its IC50 is greater than 300 µM.

Q: For `COc1cc2ncnc(Nc3cccc(Br)c3)c2cc1OC` [WHI-P79], which IC50 (human JAK3; [1]) is on record?
A: The IC50 was greater than 300 µM.

Q: What does the source list for `COc1cc2ncnc(Nc3ccc(C)c(Br)c3)c2cc1OC` [WHI-P111]?
A: IC50 (human JAK3; [1]): > 300 µM; melting point: 225 to 228 °C

Q: Which results are given for `COc1cc2ncnc(Nc3ccc(O)c(Br)c3)c2cc1OC` [WHI-P154, 4-(3′bromo4′-hydroxyl-phenyl)-amino-6,7-dimethoxyquinazoline]?
A: IC50 (recombinant murine JAK3; recombinant murine JAK3): 128 µM; IC50 (recombinant murine JAK3; recombinant murine JAK3, converted from μg/ml): ~128 µM

Q: For `COc1cc2ncnc(Nc3ccccc3O)c2cc1OC` [WHI-P132], which IC50 (human JAK3) is on record?
A: Its IC50 is greater than 300 µM.

Q: What about the “activity against JAK3 (in words)” value (human JAK3; biological assays) of the same compound?
A: Its value is “inactive against JAK3”.

Q: For `COc1cc2ncnc(Nc3cc(Br)c(O)c(Br)c3)c2cc1OC` [WHI-P97, 4-(3′,5′-dibromo-4′-hydroxyl-phenyl)-amino-6,7-dimethoxyquinazoline], which IC50 (human JAK3; [1]) is on record?
A: Its IC50 is 11 µM.
